One data set has as its system MCF-7. Put plainly: MTT cancer cell proliferation assay, MCF-7. Format: cell-based, human. The note with it: Homo sapiens. A digest of the protocol:
(§1)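 Cells seeded at 1×10^4/well and exposed 48 h to 0.01-100 μM compound (0.01, 0.1, 1, 5, 10, 100 μM) or DMSO. MTT added for a further 4 h, formazan dissolved in DMSO and OD read at 550 nm; quadruplicate wells per concentration. MCF-7 is ER-positive; MDA-MB-231 ER-negative, triple-negative.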

A further data set deals with MDA-MB-231. As to the kind of experiment: MTT cancer cell proliferation assay, MDA-MB-231. Format: cell-based, human. Conditions: Homo sapiens. The gist of the method: as §1
For the next data set, the system named is AsPC1. Put plainly: Cancer cell proliferation assay, AsPC1. Conditions: Homo sapiens. It counts as cell-based. As to the method: (§2) In Vitro Determination of Effects of Synthesized Diterpenoids on Cancer Cell Proliferation. […] Then MTT solution was removed, and 150 μL of DMSO was added to each well. Absorbance of all wells was determined by measuring OD at 550 nm after a 10 min incubation on a 96-well GlowMaxate absorbance reader (Promega, Madison, Wis.). Each individual compound was tested in quadruplicate wells for each concentration.

The next data set relates to Panc-1. As to the kind of experiment: Cancer cell proliferation assay, Panc-1. It counts as cell-based. The note with it: Homo sapiens. As to the method:
as §2

The next data set concerns DU145. As to the kind of experiment: Cancer cell proliferation assay, DU145. It counts as cell-based. The note with it: Homo sapiens.
Data set [1] deals with breast, pancreatic, and prostate cancer cell lines. Put plainly: Anti-proliferation effects against cancer cell lines. Format: cell-based, human. Conditions: summary of Tables 1 and 2. As to the method: In Vitro Determination of Effects of Synthesized Diterpenoids on Cancer Cell Proliferation. Breast cancer cell lines MCF-7, MDA-MB-231, […] and MCF/ADR were seeded in 96-well plates at a density of 1×10^4 cells/well and treated with DMSO and 0.01, 0.1, 1, 5, 10, and 100 μM of individual compound for 48 h, and then 20 μL of 3-(4,5-dimethylthiazol-2-yl)-2,5-diphenyltetrazolium bromide (MTT) (5 mg/mL in PBS) was added to each well and further incubated for another 4 h. Then MTT solution was removed, and 150 μL of DMSO was added to each well. Absorbance of all wells was determined by measuring OD at 550 nm after a 10 min incubation on a 96-well GlowMaxate absorbance reader (Promega, Madison, Wis.). Each individual compound was tested in quadruplicate wells for each concentration.

A further data set can be described thus: Aqueous solubility. Format: physicochemical. Conditions: for solubility: water; for Aqueous solubility compared with oridonin: FIG. 2.
The mark [2] stands for this setting: MCF7, Table 1a, breast cancer, read-out: IC50 (μM) MCF-7.
Setting [3] is: MCF7, Table 2b, mean of at least three experiments, read-out: Effect on proliferation MCF-7 (ER positive) (IC50).
[4] abbreviates: MDA-MB-231, Table 1a, breast cancer, read-out: IC50 (μM) MDA-MB-231.
Setting [5] is: MDA-MB-231, Table 2b, mean of at least three experiments, read-out: Effect on proliferation MDA-MB-231 (ER negative) (IC50).
The mark [6] stands for this setting: ASPC1, Table 1a, pancreatic cancer, read-out: IC50 (μM) AsPC1.
Setting [7] is: ASPC1, Table 2b, mean of at least three experiments, read-out: Effect on proliferation AsPC1 (IC50).
Where [8] appears, read: PANC-1, Table 1a, pancreatic cancer, read-out: IC50 (μM) Panc-1.
Where [9] appears, read: PANC-1, Table 2b, mean of at least three experiments, read-out: Effect on proliferation Panc-1 (IC50).
The mark [10] stands for this setting: DU-145, Table 1a, prostate cancer, read-out: IC50 (μM) DU145.
The mark [11] stands for this setting: DU-145, Table 2b, mean of at least three experiments, read-out: Effect on proliferation DU145 (IC50).
Where [12] appears, read: in the form of HCl salt, read-out: Aqueous solubility (saturated concentration).

≈ marks a conversion by molar mass, not a printed value. Where two headings read alike, the source gives them in different places.

Regarding `C=C1C(=O)[C@]23[C@H](O)[C@H]1CC[C@H]2[C@@]12CO[C@]3(O)[C@@H](O)[C@@H]1C(C)(C)Cc1sc(NC(C)C)nc12` [CYD-6-30, (5aR,6S,7S,7aR,10S,12aS,12bR,15R)-6,7,15-trihydroxy-2-(isopropylamino)-5,5-dimethyl-9-methylene-5,5a,6,7,10,11,12,12a-octahydro-4H-7,12b-(epoxymethano)-7a,10-methanocyclohepta[7,8]naphtho[1,2-d]thiazol-8(9H)-one], the IC50 was found to be 0.82 µM in the data set on MCF-7 (setting [2]); 0.8 µM in the data set on MCF-7 (setting [3]); 0.28 µM in the data set with MDA-MB-231 (setting [4]); 0.3 µM in the data set on MDA-MB-231 (setting [5]); 1.45 µM with AsPC1 (setting [6]); 1.4 µM with AsPC1 (setting [7]). Moreover, the IC50 with Panc-1 (setting [8]) came out at 3.27 µM; in the data set with Panc-1 (setting [9]), 3.3 µM; in the data set on DU145 (setting [10]) it was 5.31 µM; in the data set with DU145 (setting [11]), 5.3 µM. Moreover, the “IC50 values, anti-proliferation effects against cancer cell lines” value (“IC50 values, anti-proliferation effects” below) in data set [1] was “low micromolar to nanomolar”.
As to `C=C1C(=O)[C@]23[C@H](O)[C@H]1CC[C@H]2[C@@]12CO[C@]3(O)[C@@H](O)[C@@H]1C(C)(C)Cc1sc(NCCCC)nc12` [CYD-6-28, (5aR,6S ,7S,7aR,10S,12aS,12bR,15R)-2-(butylamino)-6,7,15-trihydroxy-5,5-dimethyl-9-methylene-5,5a,6,7,10,11,12,12a-octahydro-4H-7,12b-(epoxymethano)-7a,10-methanocyclohepta[7,8]naphtho[1,2-d]thiazol-8(9H)-one], the IC50 in the data set with MCF-7 (setting [2]) came to 0.59 µM; in the data set on MCF-7 (setting [3]) it was 0.6 µM; in the data set with MDA-MB-231 (setting [4]), 1.06 µM; with MDA-MB-231 (setting [5]), 1.1 µM; in the data set on AsPC1 (setting [6]) it was 1.39 µM; in the data set with AsPC1 (setting [7]), 1.4 µM. Also, the IC50 came out at 4.01 µM with Panc-1 (setting [8]), 4 µM in the data set with Panc-1 (setting [9]), 4.22 µM with DU145 (setting [10]) and 4.2 µM in the data set on DU145 (setting [11]). In addition, the “IC50 values, anti-proliferation effects” value in data set [1] is “low micromolar to nanomolar”.
In the case of `C=C1C(=O)[C@]23[C@H](O)[C@H]1CC[C@H]2[C@@]12CO[C@]3(O)[C@@H](O)[C@@H]1C(C)(C)Cc1sc(NC(=N)N)nc12` [CYD-6-29, 1-((5aR,6S,7S,7aR,10S,12aS,12bR,15R)-6,7,15-trihydroxy-5,5-dimethyl-9-methylene-8-oxo-5,5a,6,7,8,9,10,11,12,12a-decahydro-4H-7,12b-(epoxymethano)-7a,10-methanocyclohepta[7,8]naphtho[1,2-d]thiazol-2-yl)guanidine], the IC50 in the data set with MCF-7 (setting [2]) is 3.43 µM; in the data set with MCF-7 (setting [3]), 3.4 µM; in the data set on MDA-MB-231 (setting [4]), over 10 µM; with MDA-MB-231 (setting [5]) it was over 10 µM; with AsPC1 (setting [6]) it was over 10 µM; in the data set on AsPC1 (setting [7]), over 10 µM. For the same compound, the IC50 was 15.4 µM with Panc-1 (setting [8]), over 10 µM with Panc-1 (setting [9]), 35.9 µM in the data set with DU145 (setting [10]) and over 10 µM in the data set with DU145 (setting [11]). Also, the solubility in “Aqueous solubility” (setting [12]) was over 100 mg/mL.
Consider `C=C1C(=O)[C@@]23C(CC[C@H]1[C@H]2O)[C@@]12CO[C@]3(O)[C@@H](O)C1C(C)(C)Cc1sc(NC3CCCCC3)nc12` (stereo partly drawn) [CYD-6-17-2, (6S,7S,7aR,10R,12bR,15R)-2-(cyclohexylamino)-6,7,15-trihydroxy-5,5-dimethyl-9-methylene-5,5a,6,7,10,11,12,12a-octahydro-4H-7,12b-(epoxymethano)-7a,10-methanocyclohepta[7,8]naphtho[1,2-d]thiazol-8(9H)-one], for which the IC50 in the data set with MCF-7 (setting [2]) was determined as 0.94 µM; with MCF-7 (setting [3]), 0.9 µM; in the data set on MDA-MB-231 (setting [4]) it was 0.83 µM; in the data set on MDA-MB-231 (setting [5]), 0.8 µM; in the data set on AsPC1 (setting [6]), 1.65 µM; in the data set on AsPC1 (setting [7]), 1.7 µM. In addition, the IC50 in the data set on Panc-1 (setting [8]) came to 3.74 µM; in the data set with Panc-1 (setting [9]), 3.7 µM; with DU145 (setting [10]), 1.82 µM; in the data set with DU145 (setting [11]) it was 1.8 µM. The “IC50 values, anti-proliferation effects” value in data set [1] is reported as “low micromolar to nanomolar”.
As to `C=C1C(=O)[C@@]23C(CC[C@H]1[C@H]2O)[C@@]12CO[C@]3(O)[C@@H](O)C1C(C)(C)Cc1sc(C)nc12` (stereo partly drawn) [CYD-6-19, (6S,7S,7aR,10R,12bR,15R)-6,7,15-trihydroxy-2,5,5-trimethyl-9-methylene-5,5a,6,7,10,11,12,12a-octahydro-4H-7,12b-(epoxymethano)-7a,10-methanocyclohepta[7,8]naphtho[1,2-d]thiazol-8(9H)-one], the IC50 in the data set with MCF-7 (MCF7, read-out: Effect on proliferation MCF-7 (ER positive) (IC50)) worked out at 2.6 µM; in the data set on MCF-7 (MCF7, read-out: IC50 (μM) MCF-7) it was 2.63 µM; with MDA-MB-231 (MDA-MB-231, read-out: Effect on proliferation MDA-MB-231 (ER negative) (IC50)) it was 6.9 µM; with MDA-MB-231 (MDA-MB-231, read-out: IC50 (μM) MDA-MB-231), 6.88 µM; in the data set on AsPC1 (ASPC1, read-out: Effect on proliferation AsPC1 (IC50)) it was 6.5 µM; in the data set on AsPC1 (ASPC1, read-out: IC50 (μM) AsPC1), 6.46 µM. The IC50 in the data set with Panc-1 (PANC-1, read-out: Effect on proliferation Panc-1 (IC50)) was determined as 7.8 µM; with Panc-1 (PANC-1, read-out: IC50 (μM) Panc-1), 7.83 µM; in the data set on DU145 (DU-145, read-out: Effect on proliferation DU145 (IC50)) it was 7.6 µM; in the data set with DU145 (DU-145, read-out: IC50 (μM) DU145), 7.63 µM. The “Aqueous solubility compared with oridonin” value in the data set “Aqueous solubility” is “significantly improved solubility”. Also, in “Aqueous solubility” (compound as such, read-out: Aqueous solubility), the solubility was found to be 4.47 mg/mL (≈ 10.7 mM).
Regarding `C=C1C(=O)[C@]23[C@H](O)[C@H]1CC[C@H]2[C@@]12CO[C@]3(O)[C@@H](O)[C@@H]1C(C)(C)Cc1sc(NC)nc12` [CYD-5-54, (5aR,6S,7S,7aR,10S,12aS,12bR,15R)-6,7,15-trihydroxy-5,5-dimethyl-2-(methylamino)-9-methylene-5,5a,6,7,10,11,12,12a-octahydro-4H-7,12b-(epoxymethano)-7a,10-methanocyclohepta[7,8]naphtho[1,2-d]thiazol-8(9H)-one], the IC50 amounted to 1.28 µM in the data set with MCF-7 (setting [2]); 1.3 µM in the data set with MCF-7 (setting [3]); 2.06 µM in the data set with MDA-MB-231 (setting [4]); 2.1 µM in the data set with MDA-MB-231 (setting [5]); 1.84 µM in the data set on AsPC1 (setting [6]); 1.8 µM in the data set with AsPC1 (setting [7]). The IC50 in the data set with Panc-1 (setting [8]) was 2.33 µM; in the data set on Panc-1 (setting [9]), 2.3 µM; in the data set with DU145 (setting [10]), 4.05 µM; in the data set on DU145 (setting [11]), 4.1 µM. Also, in “Aqueous solubility”, the “Aqueous solubility compared with oridonin” value is on record as “significantly improved solubility”. Further, the “Improvement of aqueous solubility in comparison with oridonin” value in “Aqueous solubility” (HCl salt vs oridonin (1.29 mg/mL)) was about 62 fold. Further, the solubility in “Aqueous solubility” (setting [12]) was determined as 81.2 mg/mL. Besides, the “IC50 values, anti-proliferation effects” value in data set [1] was “low micromolar to nanomolar”.
For the compound `C=C1C(=O)[C@@]23C(CCC1[C@H]2O)[C@@]12COC3(O)[C@@H](O)C1C(C)(C)Cc1sc(NCCN3CCCCC3)nc12` (stereo in doubt) [CYD-6-20, (6S,7S,7aR,10R,12bR,15R)-6,7,15-trihydroxy-5,5-dimethyl-9-methylene-2-((2-(piperidin-1-yl)ethyl)amino)-5,5a,6,7,10,11,12,12a-octahydro-4H-7,12b(epoxymethano)-7a,10-methanocyclohepta[7,8]naphtho[1,2-d]thiazol-8(9H)-one], the IC50 in the data set on MCF-7 (setting [2]) came to 1 µM; in the data set with MCF-7 (setting [3]), 1 µM; in the data set with MDA-MB-231 (setting [4]), 1.83 µM; in the data set on MDA-MB-231 (setting [5]), 1.8 µM; in the data set on AsPC1 (setting [6]) it was 1.1 µM; with AsPC1 (setting [7]), 1.1 µM. In addition, the IC50 in the data set on Panc-1 (setting [8]) is 1.54 µM; in the data set on Panc-1 (setting [9]) it was 1.5 µM; with DU145 (setting [10]) it was 1.16 µM; in the data set with DU145 (setting [11]) it was 1.2 µM. For the same compound, in “Aqueous solubility” (setting [12]), the solubility was over 100 mg/mL.

For the origin of these results see US9725460B2, “Oridonin analogs, compositions, and methods related thereto” (THE BOARD OF REGENTS OF THE UNIVERSITY OF TEXAS SYSTEM, priority 2013, dated 2017).
